In ChEMBL document CHEMBL1201862, “PubChem BioAssay data set” (2004):
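Method: 48-hour compound exposure of cells in 96-well plates, five concentrations, linear interpolation of endpoints. Here, GI50 denotes the concentration required for 50% inhibition of growth.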 Activity calls are given as the source filed them. Cut-off read from the data, not from the text of the source: active = GI50 up to about 1.1 µM and inactive = higher.

Experiments:
Assay in all cases: growth of human tumour cells (NCI), 48 h
[1] = system: 786-0
[2] = system: A549
[3] = system: ACHN
[4] = system: BT-549
[5] = system: CCRF-CEM
[6] = system: DU-145
[7] = system: EKVX
[8] = system: HCC 2998
[9] = system: HCT-116
[10] = system: HCT-15
[11] = system: HL-60
[12] = system: HOP-92
[13] = system: HT-29
[14] = system: Hs-578T
[15] = system: IGROV-1
[16] = system: K562
[17] = system: KM12
[18] = system: M14
[19] = system: MDA-MB-231
[20] = system: MDA-MB-435
[21] = system: MDA-N
[22] = system: MOLT-4
[23] = system: Malme-3M
[24] = system: NCI-H226
[25] = system: NCI-H23
[26] = system: NCI-H460
[27] = system: NCI-H522
[28] = system: OVCAR-3
[29] = system: OVCAR-4
[30] = system: OVCAR-5
[31] = system: OVCAR-8
[32] = system: SF-268
[33] = system: SF-295
[34] = system: SF-539
[35] = system: SK-MEL-2
[36] = system: SK-OV-3
[37] = system: SN12C
[38] = system: SNB-19
[39] = system: SR
[40] = system: T47D
[41] = system: TK-10
[42] = system: U-251
[43] = system: UACC-257
[44] = system: UO-31

CCOC(=O)c1cc(-c2ccc(Cl)cc2)c([N+](=O)[O-])n1C
GI50 [1]: > 10 µM (inactive) | GI50 [2]: > 10 µM (inactive) | GI50 [3]: > 10 µM (inactive) | GI50 [4]: > 10 µM (inactive) | GI50 [5]: > 10 µM (inactive) | GI50 [6]: > 10 µM (inactive) | GI50 [7]: > 10 µM (inactive) | GI50 [8]: > 10 µM (inactive) | GI50 [9]: > 10 µM (inactive) | GI50 [10]: > 10 µM | GI50 [11]: > 10 µM (inactive) | GI50 [12]: > 10 µM (inactive) | GI50 [13]: > 10 µM (inactive) | GI50 [14]: > 10 µM (inactive) | GI50 [15]: > 10 µM (inactive) | GI50 [16]: > 10 µM (inactive) | GI50 [17]: > 10 µM (inactive) | GI50 [18]: > 10 µM (inactive) | GI50 [19]: 0.08 µM (active) | GI50 [20]: > 10 µM (inactive) | GI50 [21]: > 10 µM (inactive) | GI50 [22]: > 10 µM (inactive) | GI50 [23]: > 10 µM (inactive) | GI50 [24]: > 10 µM (inactive) | GI50 [25]: > 10 µM (inactive) | GI50 [26]: > 10 µM (inactive) | GI50 [27]: > 10 µM (inactive) | GI50 [28]: > 10 µM (inactive) | GI50 [29]: > 10 µM (inactive) | GI50 [30]: > 10 µM (inactive) | GI50 [31]: > 10 µM (inactive) | GI50 [32]: > 10 µM (inactive) | GI50 [33]: > 10 µM (inactive) | GI50 [34]: > 10 µM (inactive) | GI50 [35]: > 10 µM (inactive) | GI50 [36]: > 10 µM (inactive) | GI50 [37]: > 10 µM (inactive) | GI50 [38]: > 10 µM (inactive) | GI50 [39]: 5.08 µM (inactive) | GI50 [40]: 2.05 µM (inactive) | GI50 [41]: > 10 µM (inactive) | GI50 [42]: > 10 µM (inactive) | GI50 [43]: > 10 µM (inactive) | GI50 [44]: 5.48 µM (inactive)
